# From PMC3446762 (Viruses, 2012)
# Legend:
# [1] = tested on: host cells; details: cited from earlier work
# [2] = tested on: EBOV; details: 20 µM; cited from earlier work
# [3] = tested on: EBOV Zaire-95 isolate; type: cell-based, Ebola (EBOV)
# [4] = tested on: HeLa cells; details: human
# [5] = tested on: MARV Ci67 isolate; type: cell-based, Marburg (MARV)
# [6] = tested on: HeLa cells; details: human; remark: listed apart in the source
compound,measurement,setting,value
CCN(CC)CCCNc1cc(C)nc2ccc3c(ccc4nc(C)cc(NCCCN(CC)CC)c43)c12 [Compound 2],toxicity to host cells,[1],toxic to host cells
same,EBOV inhibition,[2],13%
Cc1cc(NCCN2CCOCC2)c2c(ccc3c2ccc2nc(C)cc(NCCN4CCOCC4)c23)n1 [Compound 1],toxicity to host cells,[1],non-toxic to host cells
same,EBOV inhibition,[2],53%
CCN(CC)CCCNc1ccnc2ccc3c(ccc4nccc(NCCCN(CC)CC)c43)c12 [Compound 4],cellular protection during EBOV infection,[3],100%
same,"cellular toxicity (reduction in cell number), EBOV assay",[4],80–90%
same,cellular protection during MARV infection,[5],100%
same,"cellular toxicity (reduction in cell number), MARV assay",[6],80–90%
